Literature values in patent US20040062739A1, “Use of carbohydrates to improve skin barrier function” (SOCIETE L'OREAL S.A., priority 2000, published 2004).

Key:
Design in all cases: key: −: no activity; ε, +, ++: specific activity; ε, +, ++: specific activity; ε, +, ++: specific activity
Settings in all cases: glycosidase sold by Clonezyme; cited from earlier work
GLY-01 = test system: GLY-01
GLY-06 = test system: GLY-06
GLY-05 = test system: GLY-05
GLY-09 = test system: GLY-09
GLY-02 = test system: GLY-02
GLY-04 = test system: GLY-04
GLY-03 = test system: GLY-03
GLY-10 = test system: GLY-10
GLY-08 = test system: GLY-08
GLY-07 = test system: GLY-07

## CC(=O)NC1C(O)CC(Oc2ccc([N+](=O)[O-])cc2)(C(=O)O)OC1C(O)C(O)CO [α-D-N-acetylneuramide]
GLY-01
  substrate specificity GLY-01: −
GLY-06
  substrate specificity GLY-06: −
GLY-05
  substrate specificity GLY-05: −
GLY-09
  substrate specificity GLY-09: −
GLY-02
  substrate specificity GLY-02: −
GLY-04
  substrate specificity GLY-04: −
GLY-03
  substrate specificity GLY-03: −
GLY-10
  substrate specificity GLY-10: −
GLY-08
  substrate specificity GLY-08: −
GLY-07
  substrate specificity GLY-07: −

## OC[C@H]1O[C@H](O)[C@H](O)[C@@H](O)[C@H]1O [α-D-galactose]
GLY-01
  substrate specificity GLY-01: −
GLY-06
  substrate specificity GLY-06: −
GLY-05
  substrate specificity GLY-05: −
GLY-09
  substrate specificity GLY-09: −
GLY-02
  substrate specificity GLY-02: −
GLY-04
  substrate specificity GLY-04: −
GLY-03
  substrate specificity GLY-03: −
GLY-10
  substrate specificity GLY-10: +
GLY-08
  substrate specificity GLY-08: −
GLY-07
  substrate specificity GLY-07: −

## OC[C@H]1O[C@H](O)[C@H](O)[C@@H](O)[C@@H]1O [α-D-glucose]
GLY-01
  substrate specificity GLY-01: ++
GLY-06
  substrate specificity GLY-06: ++
GLY-05
  substrate specificity GLY-05: ++
GLY-09
  substrate specificity GLY-09: ++
GLY-02
  substrate specificity GLY-02: ++
GLY-04
  substrate specificity GLY-04: ++
GLY-03
  substrate specificity GLY-03: ++
GLY-10
  substrate specificity GLY-10: −
GLY-08
  substrate specificity GLY-08: ++
GLY-07
  substrate specificity GLY-07: ++

## OC[C@H]1O[C@H](O)[C@@H](O)[C@@H](O)[C@@H]1O [α-D-mannose]
GLY-01
  substrate specificity GLY-01: −
GLY-06
  substrate specificity GLY-06: −
GLY-05
  substrate specificity GLY-05: −
GLY-09
  substrate specificity GLY-09: −
GLY-02
  substrate specificity GLY-02: −
GLY-04
  substrate specificity GLY-04: −
GLY-03
  substrate specificity GLY-03: −
GLY-10
  substrate specificity GLY-10: −
GLY-08
  substrate specificity GLY-08: −
GLY-07
  substrate specificity GLY-07: −

## C[C@@H]1O[C@@H](O)[C@@H](O)[C@H](O)[C@@H]1O [α-L-fucose]
GLY-01
  substrate specificity GLY-01: −
GLY-06
  substrate specificity GLY-06: −
GLY-05
  substrate specificity GLY-05: −
GLY-09
  substrate specificity GLY-09: −
GLY-02
  substrate specificity GLY-02: −
GLY-04
  substrate specificity GLY-04: −
GLY-03
  substrate specificity GLY-03: −
GLY-10
  substrate specificity GLY-10: −
GLY-08
  substrate specificity GLY-08: −
GLY-07
  substrate specificity GLY-07: −

## C[C@@H]1O[C@@H](O)[C@H](O)[C@H](O)[C@H]1O [α-L-rhamnose]
GLY-01
  substrate specificity GLY-01: −
GLY-06
  substrate specificity GLY-06: −
GLY-05
  substrate specificity GLY-05: −
GLY-09
  substrate specificity GLY-09: −
GLY-02
  substrate specificity GLY-02: −
GLY-04
  substrate specificity GLY-04: −
GLY-03
  substrate specificity GLY-03: −
GLY-10
  substrate specificity GLY-10: −
GLY-08
  substrate specificity GLY-08: −
GLY-07
  substrate specificity GLY-07: −

## CC(=O)NC1C(OC2C(CO)OC(Oc3ccc([N+](=O)[O-])cc3)C(NC(C)=O)C2O)OC(CO)C(O)C1O [β-D-N-acetylch obloside]
GLY-01
  substrate specificity GLY-01: −
GLY-06
  substrate specificity GLY-06: −
GLY-05
  substrate specificity GLY-05: −
GLY-09
  substrate specificity GLY-09: −
GLY-02
  substrate specificity GLY-02: −
GLY-04
  substrate specificity GLY-04: −
GLY-03
  substrate specificity GLY-03: −
GLY-10
  substrate specificity GLY-10: −
GLY-08
  substrate specificity GLY-08: −
GLY-07
  substrate specificity GLY-07: −

## OC[C@H]1O[C@H](O[C@H]2[C@H](O)[C@@H](O)[C@H](O)O[C@@H]2CO)[C@H](O)[C@@H](O)[C@@H]1O [β-D-cellobiose]
GLY-01
  substrate specificity GLY-01: −
GLY-06
  substrate specificity GLY-06: +
GLY-09
  substrate specificity GLY-09: ε
GLY-02
  substrate specificity GLY-02: ++
GLY-04
  substrate specificity GLY-04: ε
GLY-03
  substrate specificity GLY-03: ε
GLY-10
  substrate specificity GLY-10: −
GLY-08
  substrate specificity GLY-08: ε
GLY-07
  substrate specificity GLY-07: +

## C[C@H]1O[C@@H](O)[C@H](O)[C@@H](O)[C@H]1O [β-D-fucose]
GLY-01
  substrate specificity GLY-01: −
GLY-06
  substrate specificity GLY-06: ++
GLY-05
  substrate specificity GLY-05: ++
GLY-09
  substrate specificity GLY-09: ++
GLY-02
  substrate specificity GLY-02: ++
GLY-04
  substrate specificity GLY-04: ++
GLY-03
  substrate specificity GLY-03: ++
GLY-10
  substrate specificity GLY-10: −
GLY-08
  substrate specificity GLY-08: +
GLY-07
  substrate specificity GLY-07: ++

## OC[C@H]1O[C@@H](O)[C@H](O)[C@@H](O)[C@H]1O [β-D-galactose]
GLY-01
  substrate specificity GLY-01: −
GLY-06
  substrate specificity GLY-06: ε
GLY-05
  substrate specificity GLY-05: +
GLY-09
  substrate specificity GLY-09: −
GLY-02
  substrate specificity GLY-02: ++
GLY-04
  substrate specificity GLY-04: +
GLY-03
  substrate specificity GLY-03: ε
GLY-10
  substrate specificity GLY-10: −
GLY-08
  substrate specificity GLY-08: +
GLY-07
  substrate specificity GLY-07: ε

## OC[C@H]1O[C@@H](O)[C@H](O)[C@@H](O)[C@@H]1O [β-D-glucose]
GLY-01
  substrate specificity GLY-01: −
GLY-06
  substrate specificity GLY-06: −
GLY-05
  substrate specificity GLY-05: −
GLY-09
  substrate specificity GLY-09: −
GLY-02
  substrate specificity GLY-02: −
GLY-04
  substrate specificity GLY-04: −
GLY-03
  substrate specificity GLY-03: −
GLY-10
  substrate specificity GLY-10: −
GLY-08
  substrate specificity GLY-08: −
GLY-07
  substrate specificity GLY-07: −

## O=C(O)[C@H]1O[C@@H](Oc2ccc([N+](=O)[O-])cc2)[C@H](O)[C@@H](O)[C@@H]1O [β-D-glucuronide]
GLY-01
  substrate specificity GLY-01: −
GLY-06
  substrate specificity GLY-06: −
GLY-05
  substrate specificity GLY-05: −
GLY-09
  substrate specificity GLY-09: −
GLY-02
  substrate specificity GLY-02: −
GLY-04
  substrate specificity GLY-04: −
GLY-03
  substrate specificity GLY-03: −
GLY-10
  substrate specificity GLY-10: −
GLY-08
  substrate specificity GLY-08: −
GLY-07
  substrate specificity GLY-07: ε

## OC[C@H]1O[C@@H](O[C@H]2[C@H](O)[C@@H](O)[C@H](O)O[C@@H]2CO)[C@H](O)[C@@H](O)[C@H]1O [β-D-lactose]
GLY-01
  substrate specificity GLY-01: −
GLY-06
  substrate specificity GLY-06: +
GLY-05
  substrate specificity GLY-05: −
GLY-09
  substrate specificity GLY-09: −
GLY-02
  substrate specificity GLY-02: +
GLY-04
  substrate specificity GLY-04: −
GLY-03
  substrate specificity GLY-03: ε
GLY-10
  substrate specificity GLY-10: −
GLY-08
  substrate specificity GLY-08: −
GLY-07
  substrate specificity GLY-07: ε

## OC[C@H]1O[C@@H](O)[C@@H](O)[C@@H](O)[C@@H]1O [β-D-mannose]
GLY-01
  substrate specificity GLY-01: −
GLY-06
  substrate specificity GLY-06: +
GLY-05
  substrate specificity GLY-05: −
GLY-09
  substrate specificity GLY-09: +
GLY-02
  substrate specificity GLY-02: ε
GLY-04
  substrate specificity GLY-04: −
GLY-03
  substrate specificity GLY-03: −
GLY-10
  substrate specificity GLY-10: −
GLY-08
  substrate specificity GLY-08: −
GLY-07
  substrate specificity GLY-07: +

## O[C@@H]1[C@@H](O)[C@H](O)OC[C@H]1O [β-D-xylose]
GLY-01
  substrate specificity GLY-01: ε
GLY-06
  substrate specificity GLY-06: ε
GLY-05
  substrate specificity GLY-05: ε
GLY-09
  substrate specificity GLY-09: ε
GLY-02
  substrate specificity GLY-02: +
GLY-04
  substrate specificity GLY-04: ε
GLY-03
  substrate specificity GLY-03: −
GLY-10
  substrate specificity GLY-10: −
GLY-08
  substrate specificity GLY-08: ε
GLY-07
  substrate specificity GLY-07: ε
